Source: ChEMBL document CHEMBL6109051, “Structure guided modification of 2-chloro-5-(ethyl-phenyl-sulfamoyl)-N-[2-(2-oxo-pyrrolidin-1-yl)-phenyl]-benzamide to afford selective inhibitors of Cryptosporidium parvum N-myristoyltransferase” (Bioorg Med Chem Lett, 2025)

What was measured:
Cryptosporidium parvum = assay: Antiparasitic activity against Cryptosporidium parvum assessed as inhibition of parasitic growth; format: functional, organism-based
[1] = Inhibition of Cryptosporidium parvum NMT
[2] = Selectivity index, ratio of IC50 for human NMT1 to IC50 for Cryptosporidium parvum NMT
[3] = biological target: T1, Glycylpeptide N-tetradecanoyltransferase 1 (Homo sapiens, UniProt P30419); assay: Inhibition of human NMT1
T1 sequence (P30419 whole entry): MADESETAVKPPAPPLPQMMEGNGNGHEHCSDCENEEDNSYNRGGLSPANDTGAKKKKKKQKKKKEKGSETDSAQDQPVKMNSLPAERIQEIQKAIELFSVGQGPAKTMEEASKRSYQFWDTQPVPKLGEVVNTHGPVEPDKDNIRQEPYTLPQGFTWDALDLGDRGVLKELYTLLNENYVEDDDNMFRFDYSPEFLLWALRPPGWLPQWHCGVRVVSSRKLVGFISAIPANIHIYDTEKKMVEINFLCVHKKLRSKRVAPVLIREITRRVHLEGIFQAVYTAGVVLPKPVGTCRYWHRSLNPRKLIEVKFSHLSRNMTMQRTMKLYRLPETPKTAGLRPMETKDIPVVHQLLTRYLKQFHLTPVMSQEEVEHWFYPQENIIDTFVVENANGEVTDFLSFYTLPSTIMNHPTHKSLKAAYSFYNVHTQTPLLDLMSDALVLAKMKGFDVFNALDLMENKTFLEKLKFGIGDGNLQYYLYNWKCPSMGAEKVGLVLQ

Row | SMILES | EC50 (Cryptosporidium parvum) | IC50 [1] | Ratio IC50 [2] | IC50 [3]
1 | CCN(c1ccccc1)S(=O)(=O)c1ccc(Cl)c(C(=O)Nc2ccccc2N2CCN(C(C)C)C2=O)c1 | > 20 µM | > 125 µM | – | –
2 | CCN(c1ccccc1)S(=O)(=O)c1ccc(Cl)c(C(=O)Nc2ccccc2N2CCN(C)C2=O)c1 | 6.9 µM | 2.5 µM | 4.6 | 11.4 µM
3 | CCN(c1ccccc1)S(=O)(=O)c1ccc(Cl)c(C(=O)Nc2ccccc2N2C(=O)CC(C)(C)C2=O)c1 | > 20 µM | > 125 µM | – | –
4 | CCN(c1ccccc1)S(=O)(=O)c1ccc(Cl)c(C(=O)Nc2ccccc2N2CC(C)(C)CC2=O)c1 | > 20 µM | > 125 µM | – | –
5 | CCN(c1ccccc1)S(=O)(=O)c1ccc(Cl)c(C(=O)Nc2ccccc2N2CCN(CC3CC3)C2=O)c1 | > 20 µM | 52.8 µM | > 2 | > 125 µM
6 | CCN(c1ccccc1)S(=O)(=O)c1ccc(Cl)c(C(=O)Nc2ccccc2N2CCC(C)(C)C2=O)c1 | > 20 µM | 13.8 µM | > 9 | > 125 µM
7 | CCN(c1ccccc1)S(=O)(=O)c1ccc(Cl)c(C(=O)Nc2ccccc2N2CC(CC)(CC)CC2=O)c1 | > 20 µM | > 125 µM | – | –
8 | CCN1CCN(c2ccccc2NC(=O)c2cc(S(=O)(=O)N(CC)c3ccccc3)ccc2Cl)C1=O | 16.4 µM | 2.8 µM | > 44 | > 125 µM
9 | CCN(c1ccccc1)S(=O)(=O)c1ccc(Cl)c(C(=O)Nc2ccccc2N2CCCC2=O)c1 | 3.5 µM | 3.5 µM | 1.4 | –
